According to US5256395A, “Affinity enhancement immunological reagents for in vivo detection and killing of specific target cells” (Immunotech Partners, priority 1986, dated 1993):
Side chains are listed from the residue outwards. Peptide text beside a SMILES is read from it. * marks the point of attachment. Dnp = O=[N+]([O-])c1ccc(*)c([N+](=O)[O-])c1; Ahx = NCCCCCC(=O)O

Legend:
[1] = system: anti-Lyb8.2-anti-DNP conjugate (compound 3) on BALB/c mouse spleen cells; experiment: Binding of 111In-labeled probe to mouse spleen cells in the presence of conjugate; settings: 111In-labeled tracer, BALB/c spleen cells 10^7 cells/ml, 37° C., 2 h, compound 3 at 3.10^-9 M
Procedure: (§1) In an Eppendorf plastic tube are incubated 100 μl of a cell suspension at 3.10^7 cells/ml of a human T-cell line (HPBALL) or of a human B lymphoma line (Namalwa) in phosphate buffered saline supplemented with 0.1% bovine serum albumin, 0.02% azide and 50 mM deoxyglucose, 100 μl of a solution of dual specificity conjugate, anti-CD5 (compound 1) or anti-CALLA (compound 2), at 0.5 μg/ml in the same buffer and 150 μl of radioiodinated compound 6 or compound 7. After 3 h at 4° C. or 37° C. with agitation, 100 μl of the resulting cell suspension are transferred into triplicate 0.4 ml plastic tubes containing 200 μl of a 1.2:1 mixture of dibutyl-phthalate and ethyl-hexyl-phthalate. After 30 sec centrifugation at 10,000 g, 50 μl of the supernatant are collected and counted, and the bottom of the tube, containing the cell pellet, is cut and counted. Results are then expressed as bound/free percentages.
Compound 4, and the monomeric analogue, compound 5, (0.2 nmol) have been labeled with 0.2 mCi of ^111 In chloride by incubation at room temperature in 0.1M citrate buffer for 30 min. […] After incubation of freshly isolated BALB/c mouse spleen cells (10^7 cells/ml) at 37° C. for 2 h in the presence of anti-Lyb8.2-anti-DNPconjugate (compound 3) at 3.10^-9 M, binding of the labeled compounds 4 and 5 was monitored as described in example 4. […]

[2] = system: anti-CALLA-anti-DNP dual specificity conjugate (compound 2) with HPBALL cells (human T-cell line); experiment: Binding of radioiodinated probe to target cells after washing the excess dual specificity conjugate; settings: HPBALL cells (no CALLA), compound 2 1 h then washed 3 times, tracer 2 h, 37° C.
Procedure: as §1
(§2) The experimental conditions are similar to that described above but the dual specificity conjugate is incubated first for 1 h, then the cells are washed 3 times and the tracer is added. The cells are then pelleted after another 2 h incubation. Results.

[3] = system: anti-CALLA-anti-DNP dual specificity conjugate (compound 2) on Namalwa cells (human B lymphoma line); experiment: as above; settings: for Bound/free (%): compound 2 1 h then washed 3 times, tracer 2 h; for Bound/free (%), SB = Specific Binding: excess conjugate washed
Procedure: as §1, §2

[4] = system: anti-CD5-anti-DNP dual specificity conjugate (compound 1) on HPBALL cells (human T-cell line); experiment: as above; settings: 37° C.; for Bound/free (%): compound 1 1 h then washed 3 times, tracer 2 h; for Bound/free (%), SB = Specific Binding: excess conjugate washed
Procedure: as §1, §2

[5] = system: anti-CD5-anti-DNP dual specificity conjugate (compound 1) with Namalwa cells (human B lymphoma line); experiment: as above; settings: Namalwa cells (no CD5), compound 1 1 h then washed 3 times, tracer 2 h
Procedure: as §1, §2

[6] = system: anti-CD5-anti-DNP dual specificity conjugate (compound 1; F(ab')2 clone BL1a coupled to anti-DNP Fab' clone U7-27) on HPBALL cells (human T-cell line); experiment: Binding of radioiodinated probe to target cells in the presence of excess dual specificity conjugate; settings: for Bound/free (%): compound 1 at 0.5 μg/ml present, 3 h; for Bound/free (%), SB = Specific Binding: excess conjugate present
Procedure: as §1
(§3) The experimental settings allow cross-controlled experiments, since HPBALL cells express the T-cell marker CD5, but not the tumor-associated antigen CALLA, whereas Namalwa cells express CALLA, but not CD5.

[7] = system: anti-CALLA-anti-DNP dual specificity conjugate (compound 2) on Namalwa cells (human B lymphoma line); experiment: as above; settings: for Bound/free (%): compound 2 at 0.5 μg/ml present, 3 h; for Bound/free (%), SB = Specific Binding: excess conjugate present
Procedure: as §1, §3

[8] = system: anti-CD5-anti-DNP dual specificity conjugate (compound 1) with Namalwa cells (human B lymphoma line); experiment: as above; settings: Namalwa cells (no CD5), compound 1 at 0.5 μg/ml present, 3 h
Procedure: as §1, §3

[9] = system: anti-CALLA-anti-DNP dual specificity conjugate (compound 2; F(ab')2 clone ALB1 coupled to anti-DNP Fab' clone U7-27) with HPBALL cells (human T-cell line); experiment: as above; settings: HPBALL cells (no CALLA), compound 2 at 0.5 μg/ml present, 3 h
Procedure: as §1, §3

Structure (SMILES) | bound/free [1] | Bound/free (%) [2] | Bound/free (%) ([3]; 4° C.) | Bound/free (%) ([3]; 37° C.) | Bound/free (%), SB = Specific Binding ([3]; 4° C.) | Bound/free (%), SB = Specific Binding ([3]; 37° C.) | Bound/free (%) [4] | Bound/free (%), SB = Specific Binding [4] | Bound/free (%) ([5]; 4° C.) | Bound/free (%) ([5]; 37° C.) | Bound/free (%) ([6]; 4° C.) | Bound/free (%) ([6]; 37° C.) | Bound/free (%), SB = Specific Binding ([6]; 4° C.) | Bound/free (%), SB = Specific Binding ([6]; 37° C.) | Bound/free (%) ([7]; 4° C.) | Bound/free (%) ([7]; 37° C.) | Bound/free (%), SB = Specific Binding ([7]; 4° C.) | Bound/free (%), SB = Specific Binding ([7]; 37° C.) | Bound/free (%) ([8]; 4° C.) | Bound/free (%) ([8]; 37° C.) | also measured
O=C(O)CN(CCN(CC(=O)O)CC(=O)N[C@@H](CCCCNc1ccc([N+](=O)[O-])cc1[N+](=O)[O-])C(=O)O)CCN(CC(=O)O)CC(=O)N[C@@H](CCCCNc1ccc([N+](=O)[O-])cc1[N+](=O)[O-])C(=O)O [compound 4, bis-(N-ε-(2,4-dinitrophenyl)-L-Lysyl)diethylenetriamine-pentaacetic acid] | 26% | – | – | – | – | – | – | – | – | – | – | – | – | – | – | – | – | – | – | – | –
O=C(O)CN(CCN(CC(=O)O)CC(=O)O)CCN(CC(=O)O)CC(=O)N[C@@H](CCCCNc1ccc([N+](=O)[O-])cc1[N+](=O)[O-])C(=O)O [compound 5, (N-ε-(2,4-dinitrophenyl)-L-Lysyl)-diethylenetriamine-pentaacetic acid] | 6% | – | – | – | – | – | – | – | – | – | – | – | – | – | – | – | – | – | – | – | –
O=C(CCCCCNc1ccc([N+](=O)[O-])cc1[N+](=O)[O-])NCCCC[C@H](NC(=O)[C@H](Cc1ccc(O)cc1)NC(=O)CCCCCNc1ccc([N+](=O)[O-])cc1[N+](=O)[O-])C(=O)O [compound 6, N-α-(2,4-dinitrophenyl-aminocaproyl)-L-tyrosyl-N-ε-(2,4-dinitrophenyl-aminocaproyl)-L-lysine] ({Dnp-Ahx}-Tyr-Lys([Ahx-Dnp])-OH) | – | 9% | 145% | 11% | 130% | 7% | 45% | 36% | 15% | 4% | 72% | 67% | 56% | 52% | 23% | 21% | 21% | 17% | 2% | 4% | Bound/free (%) ([9]; 4° C.): 16%; Bound/free (%) ([9]; 37° C.): 15%
O=C(O)CNC(=O)[C@H](Cc1ccc(O)cc1)NC(=O)CCCCCNc1ccc([N+](=O)[O-])cc1[N+](=O)[O-] [compound 7, N-α-(2,4-dinitrophenyl-aminocaproyl)-L-tyrosyl-gylicine] | – | 3% | 50% | 4% | 42% | 2% | 11% | 7% | 8% | 2% | 38% | 12% | 35% | 9% | 6% | 5% | 4% | 4% | 2% | 1% | Bound/free (%) ([9]; 4° C.): 3%; Bound/free (%) ([9]; 37° C.): 3%
